Several values for one entry are separate records, joined by “and”; a condition that tells them apart may be missing. Equal values may be shown once. HELM strings list units from the 5' end as sugar, base in round brackets, then linkage (d deoxyribose, r ribose, m 2'-O-methyl, p phosphodiester). Methylation of C is not given here. [moe] = 2'-O-(2-methoxyethyl) (MOE); [cEt] = constrained ethyl (cEt); [sp] = phosphorothioate linkage
Target: HBV
Settings: ASO

Row | Substance | target mRNA inhibition (HepG2, 0.07 µM) | other results
1 | RNA1{[moe](A)[sp].[moe](A)[sp].[moe](C)[sp].d(C)[sp].d(A)[sp].d(C)[sp].d(T)[sp].d(G)[sp].d(A)[sp].d(A)[sp].d(C)[sp].d(A)[sp].[moe](A)[sp].[moe](A)[sp].[moe](T)[sp].[moe](G)[sp].[moe](G)}$$$$V2.0 | 57% and 51% | –
2 | RNA1{[moe](A)[sp].[moe](A)[sp].[moe](C)[sp].d(C)[sp].d(A)[sp].d(C)[sp].d(T)[sp].d(G)[sp].d(A)[sp].d(A)[sp].d(C)[sp].d(A)[sp].[moe](A)[sp].[moe](A)[sp].[moe](T)[sp].[moe](G)}$$$$V2.0 | 20% and 37% | –
3 | RNA1{[moe](A)[sp].[moe](A)[sp].[moe](C)[sp].d(T)[sp].d(G)[sp].d(G)[sp].d(A)[sp].d(G)[sp].d(C)[sp].d(C)[sp].d(A)[sp].d(C)[sp].[moe](C)[sp].[moe](A)[sp].[moe](G)[sp].[moe](C)[sp].[moe](A)}$$$$V2.0 | 69% and 58% | –
4 | RNA1{[moe](A)[sp].[moe](A)[sp].[moe](C)[sp].d(T)[sp].d(G)[sp].d(G)[sp].d(A)[sp].d(G)[sp].d(C)[sp].d(C)[sp].d(A)[sp].d(C)[sp].[moe](C)[sp].[moe](A)[sp].[moe](G)[sp].[moe](C)}$$$$V2.0 | 59% and 56% | –
5 | RNA1{[moe](A)[sp].[moe](A)[sp].[moe](G)[sp].[moe](C)[sp].[cEt](G)[sp].[cEt](A)[sp].d(A)[sp].d(G)[sp].d(T)[sp].d(G)[sp].d(C)[sp].d(A)[sp].d(C)[sp].[moe](A)[sp].[moe](C)[sp].[moe](G)[sp].[moe](G)}$$$$V2.0 | – | target mRNA inhibition (HepG2, 0.009375 µM): 26%; target mRNA inhibition (HepG2, 0.01875 µM): 29%; target mRNA inhibition (HepG2, 0.0375 µM): 30%; target mRNA inhibition (HepG2, 0.075 µM): 64%; target mRNA inhibition (HepG2, 0.15 µM): 80%; target mRNA inhibition (HepG2, 0.3 µM): 91%
6 | RNA1{[moe](A)[sp].[moe](A)[sp].[moe](G)[sp].[moe](C)[sp].d(G)[sp].d(A)[sp].d(A)[sp].d(G)[sp].d(T)[sp].d(G)[sp].d(C)[sp].d(A)[sp].d(C)[sp].[moe](A)[sp].[moe](C)[sp].[moe](G)}$$$$V2.0 | 68% and 62% | –
7 | RNA1{[moe](A)[sp].[moe](A)[sp].[moe](G)[sp].d(A)[sp].d(T)[sp].d(G)[sp].d(A)[sp].d(G)[sp].d(G)[sp].d(C)[sp].d(A)[sp].d(T)[sp].[moe](A)[sp].[moe](G)[sp].[moe](C)[sp].[moe](A)[sp].[moe](G)}$$$$V2.0 | 69% and 60% | –
8 | RNA1{[moe](A)[sp].[moe](A)[sp].[moe](T)[sp].[moe](T)[sp].[moe](T)[sp].d(A)[sp].d(T)[sp].d(G)[sp].d(C)[sp].d(C)[sp].d(T)[sp].d(A)[sp].d(C)[sp].d(A)[sp].[moe](G)[sp].[moe](C)}$$$$V2.0 | 39% and 23% | –
9 | RNA1{[moe](A)[sp].[moe](A)[sp].[moe](T)[sp].d(T)[sp].d(T)[sp].d(A)[sp].d(T)[sp].d(G)[sp].d(C)[sp].d(C)[sp].d(T)[sp].d(A)[sp].[moe](C)[sp].[moe](A)[sp].[moe](G)[sp].[moe](C)}$$$$V2.0 | 52% and 49% | –
10 | RNA1{[moe](A)[sp].[moe](A)[sp].d(G)[sp].d(C)[sp].d(G)[sp].d(A)[sp].d(A)[sp].d(G)[sp].d(T)[sp].d(G)[sp].d(C)[sp].[moe](A)[sp].[moe](C)[sp].[moe](A)[sp].[moe](C)[sp].[moe](G)[sp].[moe](G)}$$$$V2.0 | 88% and 80% | target mRNA inhibition (HepG2, 0.0092593 µM): 11%; target mRNA inhibition (HepG2, 0.0277778 µM): 27%; target mRNA inhibition (HepG2, 0.0833333 µM): 58%; target mRNA inhibition (HepG2, 0.25 µM): 80%
11 | RNA1{[moe](A)[sp].[moe](C)[sp].[moe](C)[sp].[moe](A)[sp].[moe](C)[sp].d(T)[sp].d(G)[sp].d(A)[sp].d(A)[sp].d(C)[sp].d(A)[sp].d(A)[sp].d(A)[sp].d(T)[sp].[moe](G)[sp].[moe](G)[sp].[moe](C)}$$$$V2.0 | 59% and 61% | –
12 | RNA1{[moe](A)[sp].[moe](C)[sp].[moe](C)[sp].[moe](A)[sp].d(C)[sp].d(T)[sp].d(G)[sp].d(A)[sp].d(A)[sp].d(C)[sp].d(A)[sp].d(A)[sp].d(A)[sp].[moe](T)[sp].[moe](G)[sp].[moe](G)}$$$$V2.0 | 54% and 65% | –
13 | RNA1{[moe](A)[sp].[moe](C)[sp].[moe](C)[sp].d(A)[sp].d(A)[sp].d(T)[sp].d(T)[sp].d(T)[sp].d(A)[sp].d(T)[sp].d(G)[sp].d(C)[sp].d(C)[sp].[cEt](T)[sp].[cEt](A)[sp].[cEt](C)}$$$$V2.0 | 24% and 28% | –
14 | RNA1{[moe](A)[sp].[moe](C)[sp].[moe](G)[sp].[moe](G)[sp].[moe](G)[sp].[moe](C)[sp].d(A)[sp].d(A)[sp].d(C)[sp].d(A)[sp].d(T)[sp].d(A)[sp].d(C)[sp].d(C)[sp].d(T)[sp].[moe](T)[sp].[moe](G)}$$$$V2.0 | 0% | –
15 | RNA1{[moe](A)[sp].[moe](C)[sp].[moe](G)[sp].[moe](G)[sp].[moe](G)[sp].d(C)[sp].d(A)[sp].d(A)[sp].d(C)[sp].d(A)[sp].d(T)[sp].d(A)[sp].d(C)[sp].d(C)[sp].[moe](T)[sp].[moe](T)[sp].[moe](G)}$$$$V2.0 | 48% and 45% | –
16 | RNA1{[moe](A)[sp].[moe](C)[sp].[moe](G)[sp].[moe](G)[sp].d(G)[sp].d(C)[sp].d(A)[sp].d(A)[sp].d(C)[sp].d(A)[sp].d(T)[sp].d(A)[sp].d(C)[sp].[moe](C)[sp].[moe](T)[sp].[moe](T)[sp].[moe](G)}$$$$V2.0 | 38% and 41% | –

Row | Substance | target mRNA inhibition (HepG2, 0.07 µM) | other results
17 | RNA1{[moe](A)[sp].[moe](C)[sp].[moe](G)[sp].[moe](G)[sp].d(G)[sp].d(C)[sp].d(A)[sp].d(A)[sp].d(C)[sp].d(A)[sp].d(T)[sp].d(A)[sp].d(C)[sp].[moe](C)[sp].[moe](T)[sp].[moe](T)}$$$$V2.0 | 50% and 54% | –
18 | RNA1{[moe](A)[sp].[moe](C)[sp].[moe](G)[sp].[moe](T)[sp].[moe](G)[sp].d(C)[sp].d(A)[sp].d(G)[sp].d(A)[sp].d(G)[sp].d(G)[sp].d(T)[sp].d(G)[sp].d(A)[sp].[moe](A)[sp].[moe](G)}$$$$V2.0 | 6% and 13% | –
19 | RNA1{[moe](A)[sp].[moe](C)[sp].[moe](G)[sp].[moe](T)[sp].d(G)[sp].d(C)[sp].d(A)[sp].d(G)[sp].d(A)[sp].d(G)[sp].d(G)[sp].d(T)[sp].d(G)[sp].[moe](A)[sp].[moe](A)[sp].[moe](G)[sp].[moe](C)}$$$$V2.0 | 62% and 57% | –
20 | RNA1{[moe](A)[sp].[moe](C)[sp].[moe](G)[sp].[moe](T)[sp].d(G)[sp].d(C)[sp].d(A)[sp].d(G)[sp].d(A)[sp].d(G)[sp].d(G)[sp].d(T)[sp].d(G)[sp].[moe](A)[sp].[moe](A)[sp].[moe](G)}$$$$V2.0 | 53% and 45% | –
21 | RNA1{[moe](A)[sp].[moe](C)[sp].[moe](G)[sp].d(T)[sp].d(G)[sp].d(C)[sp].d(A)[sp].d(G)[sp].d(A)[sp].d(G)[sp].d(G)[sp].d(T)[sp].d(G)[sp].[cEt](A)[sp].[cEt](A)[sp].[cEt](G)}$$$$V2.0 | 74% and 78% | –
22 | RNA1{[moe](A)[sp].[moe](C)[sp].[moe](T)[sp].[moe](A)[sp].[moe](G)[sp].d(T)[sp].d(A)[sp].d(A)[sp].d(A)[sp].d(C)[sp].d(T)[sp].d(G)[sp].d(A)[sp].d(G)[sp].[moe](C)[sp].[moe](C)}$$$$V2.0 | 64% and 66% | –
23 | RNA1{[moe](A)[sp].[moe](C)[sp].[moe](T)[sp].[moe](A)[sp].d(G)[sp].d(T)[sp].d(A)[sp].d(A)[sp].d(A)[sp].d(C)[sp].d(T)[sp].d(G)[sp].d(A)[sp].[moe](G)[sp].[moe](C)[sp].[moe](C)[sp].[moe](A)}$$$$V2.0 | 62% and 58% | –
24 | RNA1{[moe](A)[sp].[moe](C)[sp].[moe](T)[sp].[moe](G)[sp].[moe](G)[sp].[moe](A)[sp].d(G)[sp].d(C)[sp].d(C)[sp].d(A)[sp].d(C)[sp].d(C)[sp].d(A)[sp].d(G)[sp].d(C)[sp].[moe](A)[sp].[moe](G)}$$$$V2.0 | 66% and 46% | –
25 | RNA1{[moe](A)[sp].[moe](C)[sp].[moe](T)[sp].d(G)[sp].d(G)[sp].d(A)[sp].d(G)[sp].d(C)[sp].d(C)[sp].d(A)[sp].d(C)[sp].d(C)[sp].d(A)[sp].[cEt](G)[sp].[cEt](C)[sp].[cEt](A)}$$$$V2.0 | 64% and 73% | –
26 | RNA1{[moe](A)[sp].[moe](C)[sp].d(C)[sp].d(A)[sp].d(C)[sp].d(T)[sp].d(G)[sp].d(A)[sp].d(A)[sp].d(C)[sp].d(A)[sp].[moe](A)[sp].[moe](A)[sp].[moe](T)[sp].[moe](G)[sp].[moe](G)[sp].[moe](C)}$$$$V2.0 | 58% and 68% | –
27 | RNA1{[moe](A)[sp].[moe](C)[sp].d(G)[sp].d(G)[sp].d(G)[sp].d(C)[sp].d(A)[sp].d(A)[sp].d(C)[sp].d(A)[sp].d(T)[sp].[moe](A)[sp].[moe](C)[sp].[moe](C)[sp].[moe](T)[sp].[moe](T)}$$$$V2.0 | 61% and 42% | –
28 | RNA1{[moe](A)[sp].[moe](C)[sp].d(T)[sp].d(G)[sp].d(G)[sp].d(A)[sp].d(G)[sp].d(C)[sp].d(C)[sp].d(A)[sp].d(C)[sp].[moe](C)[sp].[moe](A)[sp].[moe](G)[sp].[moe](C)[sp].[moe](A)}$$$$V2.0 | 53% and 42% | –
29 | RNA1{[moe](A)[sp].[moe](G)[sp].[moe](A)[sp].[moe](G)[sp].d(A)[sp].d(A)[sp].d(G)[sp].d(T)[sp].d(C)[sp].d(C)[sp].d(A)[sp].d(C)[sp].d(C)[sp].[moe](A)[sp].[moe](C)[sp].[moe](G)[sp].[moe](A)}$$$$V2.0 | 17% | –
30 | RNA1{[moe](A)[sp].[moe](G)[sp].[moe](A)[sp].[moe](T)[sp].[moe](G)[sp].d(A)[sp].d(G)[sp].d(G)[sp].d(C)[sp].d(A)[sp].d(T)[sp].d(A)[sp].d(G)[sp].d(C)[sp].[moe](A)[sp].[moe](G)}$$$$V2.0 | 41% and 31% | –
31 | RNA1{[moe](A)[sp].[moe](G)[sp].[moe](A)[sp].d(A)[sp].d(G)[sp].d(T)[sp].d(C)[sp].d(C)[sp].d(A)[sp].d(C)[sp].d(C)[sp].d(A)[sp].d(C)[sp].[cEt](G)[sp].[cEt](A)[sp].[cEt](G)}$$$$V2.0 | 42% and 55% | –
